# Results taken from patent US8614201B2 (Janssen Pharmaceutica NV, priority 2009, dated 2013).
# Biological target: Human TRPA1 (Homo sapiens, UniProt O75762)
# Test: Alternative TRPA1 Ca2+ fluorometry assay (hTRPA1/TREx-HEK293 cells, Fluo-4, FDSS 6000)
# Assay type: cell-based
# Design: expressed in transfected cells
# Details: Fluo-4-AM, agonist 6,11-dihydro-5H-dibenzo[b,e]azepine-10-carboxylic acid methyl ester 25 nM, procedure used for Examples 184, 190 to 192, 194 to 316
# In short: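 Tetracycline-induced (50 ng/ml, 24 h) hTRPA1/TREx-HEK293 cells were loaded with Fluo-4-AM and probenecid. Compound (1% DMSO final) was added after a 12 s baseline and the Ca2+ signal followed for 14 min, then 25 nM TRPA1 agonist dibenzazepine carboxylic acid methyl ester was applied. Signal is Em540 (ex 488 nm) relative to the first baseline reading.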
# Chain of Human TRPA1 (O75762 whole entry): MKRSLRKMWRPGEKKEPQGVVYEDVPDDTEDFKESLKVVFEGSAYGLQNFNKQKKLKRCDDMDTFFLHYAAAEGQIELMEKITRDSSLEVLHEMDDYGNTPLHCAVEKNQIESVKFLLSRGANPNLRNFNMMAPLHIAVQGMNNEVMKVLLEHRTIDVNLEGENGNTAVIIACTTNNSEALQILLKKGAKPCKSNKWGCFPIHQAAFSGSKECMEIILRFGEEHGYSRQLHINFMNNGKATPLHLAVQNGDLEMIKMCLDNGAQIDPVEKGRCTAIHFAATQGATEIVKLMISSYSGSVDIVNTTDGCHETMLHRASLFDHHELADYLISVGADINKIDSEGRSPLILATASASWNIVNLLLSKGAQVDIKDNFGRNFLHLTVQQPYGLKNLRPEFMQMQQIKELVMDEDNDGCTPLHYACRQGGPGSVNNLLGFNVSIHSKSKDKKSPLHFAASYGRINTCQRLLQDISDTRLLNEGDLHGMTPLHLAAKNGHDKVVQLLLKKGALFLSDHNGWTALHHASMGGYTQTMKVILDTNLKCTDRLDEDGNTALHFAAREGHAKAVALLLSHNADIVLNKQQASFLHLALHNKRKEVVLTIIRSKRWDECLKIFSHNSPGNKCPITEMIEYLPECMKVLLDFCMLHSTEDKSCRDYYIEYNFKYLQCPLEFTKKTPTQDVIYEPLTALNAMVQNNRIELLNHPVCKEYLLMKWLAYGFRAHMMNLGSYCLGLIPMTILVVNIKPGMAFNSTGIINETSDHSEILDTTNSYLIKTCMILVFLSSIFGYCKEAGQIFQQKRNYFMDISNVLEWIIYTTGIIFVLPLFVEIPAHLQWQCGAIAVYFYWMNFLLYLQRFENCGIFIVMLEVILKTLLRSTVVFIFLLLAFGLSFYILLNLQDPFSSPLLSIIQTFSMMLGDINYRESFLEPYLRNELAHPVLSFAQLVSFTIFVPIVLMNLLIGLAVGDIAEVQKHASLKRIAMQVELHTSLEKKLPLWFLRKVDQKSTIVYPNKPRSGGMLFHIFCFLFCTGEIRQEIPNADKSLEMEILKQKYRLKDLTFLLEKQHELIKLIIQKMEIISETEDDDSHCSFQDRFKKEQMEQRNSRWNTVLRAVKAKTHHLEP
row,Compound,IC50 [µM]
1,"O=C(NCc1cc(-c2ccc(Cl)c(Cl)c2)nc(N2CCN(c3ccccc3F)CC2)n1)[C@@H]1CCCN1S(=O)(=O)c1ccc(F)cc1 [Example 248, 1-(4-Fluoro-benzenesulfonyl)-pyrrolidine-2S-carboxylic acid {6-(3,4-dichloro-phenyl)-2-[4-(2-fluoro-phenyl)-piperazin-1-yl]-pyrimidin-4-ylmethyl}-amide]",~0.676
2,"O=C(NCc1cc(-c2ccc(Cl)cc2Cl)nc(N2CCN(c3ccccc3F)CC2)n1)[C@@H]1CCCN1S(=O)(=O)c1ccc(F)cc1 [Example 250, 1-(4-Fluoro-benzenesulfonyl)-pyrrolidine-2S-carboxylic acid {6-(2,4-dichloro-phenyl)-2-[4-(2-fluoro-phenyl)-piperazin-1-yl]-pyrimidin-4-ylmethyl}-amide]",0.851
3,"O=C(NCc1cc(-c2ccc(C(F)(F)F)cc2)nc(N2CCN(c3ccccc3F)CC2)n1)[C@@H]1CCCN1S(=O)(=O)c1ccc(F)cc1Cl [Example 252, 1-(2-Chloro-4-fluoro-benzenesulfonyl)-pyrrolidine-2S-carboxylic acid [2-[4-(2-fluoro-phenyl)-piperazin-1-yl]-6-(4-trifluoromethyl-phenyl)-pyrimidin-4-ylmethyl]-amide]",> 10
4,"O=C(NCc1cc(-c2ccc(C(F)(F)F)cc2)nc(N2CCN(c3ccccc3F)CC2)n1)[C@@H]1CCCN1S(=O)(=O)c1cccc(Cl)c1 [Example 254, 1-(3-Chloro-benzenesulfonyl)-pyrrolidine-2S-carboxylic acid [2-[4-(2-fluoro-phenyl)-piperazin-1-yl]-6-(4-trifluoromethyl-phenyl)-pyrimidin-4-ylmethyl]-amide]",> 10
5,"COc1ccc(S(=O)(=O)N2CCC[C@H]2C(=O)NCc2cc(-c3ccc(C(F)(F)F)cc3)nc(N3CCN(c4ccccc4F)CC3)n2)cc1 [Example 255, 1-(4-Methoxy-benzenesulfonyl)-pyrrolidine-2S-carboxylic acid [2-[4-(2-fluoro-phenyl)-piperazin-1-yl]-6-(4-trifluoromethyl-phenyl)-pyrimidin-4-ylmethyl]-amide]",> 10
6,"Cc1ccc(F)cc1S(=O)(=O)N1CCC[C@H]1C(=O)NCc1cc(-c2ccc(C(F)(F)F)cc2)nc(N2CCN(c3ccccc3F)CC2)n1 [Example 256, 1-(5-Fluoro-2-methyl-benzenesulfonyl)-pyrrolidine-2-carboxylic acid [2-[4-(2-fluoro-phenyl)-piperazin-1-yl]-6-(4-trifluoromethyl-phenyl)-pyrimidin-4-ylmethyl]-amide]",> 10
7,"O=C(NCc1cc(-c2ccc(C(F)(F)F)cc2)nc(N2CCN(c3ccccc3F)CC2)n1)[C@@H]1CCCN1S(=O)(=O)c1ccc(F)c(Cl)c1 [Example 259, 1-(3-Chloro-4-fluoro-benzenesulfonyl)-pyrrolidine-2S-carboxylic acid [2-[4-(2-fluoro-phenyl)-piperazin-1-yl]-6-(4-trifluoromethyl-phenyl)-pyrimidin-4-ylmethyl]-amide]",3.55
8,"CC(C)c1ccc(S(=O)(=O)N2CCC[C@H]2C(=O)NCc2cc(-c3ccc(C(F)(F)F)cc3)nc(N3CCN(c4ccccc4F)CC3)n2)cc1 [Example 260, 1-(4-Isopropyl-benzenesulfonyl)-pyrrolidine-2S-carboxylic acid [2-[4-(2-fluoro-phenyl)-piperazin-1-yl]-6-(4-trifluoromethyl-phenyl)-pyrimidin-4-ylmethyl]-amide]",> 10
9,"Cc1c(Cl)cccc1S(=O)(=O)N1CCC[C@H]1C(=O)NCc1cc(-c2ccc(C(F)(F)F)cc2)nc(N2CCN(c3ccccc3F)CC2)n1 [Example 262, 1-(3-Chloro-2-methyl-benzenesulfonyl)-pyrrolidine-2S-carboxylic acid [2-[4-(2-fluoro-phenyl)-piperazin-1-yl]-6-(4-trifluoromethyl-phenyl)-pyrimidin-4-ylmethyl]-amide]",> 10
10,"O=C(NCc1cc(-c2ccc(C(F)(F)F)cc2)nc(N2CCN(c3ccccc3F)CC2)n1)[C@@H]1CCCN1S(=O)(=O)c1ccc(Cl)s1 [Example 263, 1-(5-Chloro-thiophene-2-sulfonyl)-pyrrolidine-2S-carboxylic acid [2-[4-(2-fluoro-phenyl)-piperazin-1-yl]-6-(4-trifluoromethyl-phenyl)-pyrimidin-4-ylmethyl]-amide]",0.191
11,"O=C(NCc1cc(-c2ccc(C(F)(F)F)cc2)nc(N2CCN(c3ccccc3F)CC2)n1)[C@@H]1CCCN1S(=O)(=O)c1cccs1 [Example 264, 1-(Thiophene-2-sulfonyl)-pyrrolidine-2S-carboxylic acid [2-[4-(2-fluoro-phenyl)-piperazin-1-yl]-6-(4-trifluoromethyl-phenyl)-pyrimidin-4-ylmethyl]-amide]",~0.933
12,"CCCc1ccc(S(=O)(=O)N2CCC[C@H]2C(=O)NCc2cc(-c3ccc(C(F)(F)F)cc3)nc(N3CCN(c4ccccc4F)CC3)n2)cc1 [Example 265, 1-(4-Propyl-benzenesulfonyl)-pyrrolidine-2S-carboxylic acid [2-[4-(2-fluoro-phenyl)-piperazin-1-yl]-6-(4-trifluoromethyl-phenyl)-pyrimidin-4-ylmethyl]-amide]",> 10
13,"Cc1ccc(C)c(S(=O)(=O)N2CCC[C@H]2C(=O)NCc2cc(-c3ccc(C(F)(F)F)cc3)nc(N3CCN(c4ccccc4F)CC3)n2)c1 [Example 266, 1-(2,5-Dimethyl-benzenesulfonyl)-pyrrolidine-2S-carboxylic acid [2-[4-(2-fluoro-phenyl)-piperazin-1-yl]-6-(4-trifluoromethyl-phenyl)-pyrimidin-4-ylmethyl]-amide]",> 10
14,"O=C(NCc1cc(-c2ccc(C(F)(F)F)cc2)nc(N2CCN(c3ccccc3F)CC2)n1)[C@@H]1CCCN1S(=O)(=O)c1ccccc1Cl [Example 268, 1-(2-Chloro-benzenesulfonyl)-pyrrolidine-2S-carboxylic acid [2-[4-(2-fluoro-phenyl)-piperazin-1-yl]-6-(4-trifluoromethyl-phenyl)-pyrimidin-4-ylmethyl]-amide]",> 10
15,"O=C(NCc1cc(-c2ccc(C(F)(F)F)cc2)nc(N2CCN(c3ccccc3F)CC2)n1)[C@@H]1CCCN1S(=O)(=O)c1cccc(F)c1 [Example 270, 1-(3-Fluoro-benzenesulfonyl)-pyrrolidine-2S-carboxylic acid [2-[4-(2-fluoro-phenyl)-piperazin-1-yl]-6-(4-trifluoromethyl-phenyl)-pyrimidin-4-ylmethyl]-amide]",0.692

# Other lines, results leading:
row,IC50 [µM],Compound
1,1.59,"O=C(NCc1cc(-c2cc(F)cc(F)c2)nc(N2CCN(c3ccccc3F)CC2)n1)[C@@H]1CCCN1S(=O)(=O)c1ccc(F)cc1 [Example 249, 1-(4-Fluoro-benzenesulfonyl)-pyrrolidine-2S-carboxylic acid {6-(3,5-difluoro-phenyl)-2-[4-(2-fluoro-phenyl)-piperazin-1-yl]-pyrimidin-4-ylmethyl}-amide]"
2,2.51,"O=C(NCc1cc(-c2ccccc2)nc(N2CCN(c3ccccc3F)CC2)n1)[C@@H]1CCCN1S(=O)(=O)c1ccc(F)cc1 [Example 251, 1-(4-Fluoro-benzenesulfonyl)-pyrrolidine-2S-carboxylic acid {2-[4-(2-fluoro-phenyl)-piperazin-1-yl]-6-phenyl-pyrimidin-4-ylmethyl}-amide]"
3,> 10,"COc1cccc(S(=O)(=O)N2CCC[C@H]2C(=O)NCc2cc(-c3ccc(C(F)(F)F)cc3)nc(N3CCN(c4ccccc4F)CC3)n2)c1 [Example 253, 1-(3-Methoxy-benzenesulfonyl)-pyrrolidine-2S-carboxylic acid [2-[4-(2-fluoro-phenyl)-piperazin-1-yl]-6-(4-trifluoromethyl-phenyl)-pyrimidin-4-ylmethyl]-amide]"
4,> 10,"O=C(NCc1cc(-c2ccc(C(F)(F)F)cc2)nc(N2CCN(c3ccccc3F)CC2)n1)[C@@H]1CCCN1S(=O)(=O)c1cc(Cl)ccc1F [Example 257, 1-(5-Chloro-2-fluoro-benzenesulfonyl)-pyrrolidine-2S-carboxylic acid [2-[4-(2-fluoro-phenyl)-piperazin-1-yl]-6-(4-trifluoromethyl-phenyl)-pyrimidin-4-ylmethyl]-amide]"
5,0.324,"O=C(NCc1cc(-c2ccc(C(F)(F)F)cc2)nc(N2CCN(c3ccccc3F)CC2)n1)[C@@H]1CCCN1S(=O)(=O)c1ccc(F)c(F)c1 [Example 258, 1-(3,4-Difluoro-benzenesulfonyl)-pyrrolidine-2S-carboxylic acid [2-[4-(2-fluoro-phenyl)-piperazin-1-yl]-6-(4-trifluoromethyl-phenyl)-pyrimidin-4-ylmethyl]-amide]"
6,2.69,"O=C(NCc1cc(-c2ccc(C(F)(F)F)cc2)nc(N2CCN(c3ccccc3F)CC2)n1)[C@@H]1CCCN1S(=O)(=O)c1ccc(F)c(F)c1F [Example 261, 1-(2,3,4-Trifluoro-benzenesulfonyl)-pyrrolidine-2S-carboxylic acid [2-[4-(2-fluoro-phenyl)-piperazin-1-yl]-6-(4-trifluoromethyl-phenyl)-pyrimidin-4-ylmethyl]-amide]"
7,7.94,"O=C(NCc1cc(-c2ccc(C(F)(F)F)cc2)nc(N2CCN(c3ccccc3F)CC2)n1)[C@@H]1CCCN1S(=O)(=O)c1ccc(F)cc1F [Example 267, 1-(2,4-Difluoro-benzenesulfonyl)-pyrrolidine-2S-carboxylic acid [2-[4-(2-fluoro-phenyl)-piperazin-1-yl]-6-(4-trifluoromethyl-phenyl)-pyrimidin-4-ylmethyl]-amide]"
8,0.229,"O=C(NCc1cc(-c2ccc(C(F)(F)F)cc2)nc(N2CCN(c3ccccc3F)CC2)n1)[C@@H]1CCCN1S(=O)(=O)c1ccc(Cl)cc1 [Example 269, 1-(4-Chloro-benzenesulfonyl)-pyrrolidine-2S-carboxylic acid [2-[4-(2-fluoro-phenyl)-piperazin-1-yl]-6-(4-trifluoromethyl-phenyl)-pyrimidin-4-ylmethyl]-amide]"
